Measurements reported in US6380166B1, “Glucopyranosides conjugates of 2-(4-hydroxy-phenyl)-3-methyl-1-[4-(2-amin-1-yl-ethoxy)-benzyl]-1H-indol-5-ols” (American Home Products Corporation, priority 1999, dated 2002).
pIC50: −log10 of the molar value. Where a name gives a salt, the structure may show the parent alone.

Target: T1, estrogen receptor (Homo sapiens, UniProt P03372)
T1 construct: since the MCF-7 cells express estrogen receptors; endogenous in cells; host or cells: MCF-7 human breast carcinoma cells infected with adenovirus 5-ERE-tk-luciferase (reporter only)
T1 sequence (P03372 1-595): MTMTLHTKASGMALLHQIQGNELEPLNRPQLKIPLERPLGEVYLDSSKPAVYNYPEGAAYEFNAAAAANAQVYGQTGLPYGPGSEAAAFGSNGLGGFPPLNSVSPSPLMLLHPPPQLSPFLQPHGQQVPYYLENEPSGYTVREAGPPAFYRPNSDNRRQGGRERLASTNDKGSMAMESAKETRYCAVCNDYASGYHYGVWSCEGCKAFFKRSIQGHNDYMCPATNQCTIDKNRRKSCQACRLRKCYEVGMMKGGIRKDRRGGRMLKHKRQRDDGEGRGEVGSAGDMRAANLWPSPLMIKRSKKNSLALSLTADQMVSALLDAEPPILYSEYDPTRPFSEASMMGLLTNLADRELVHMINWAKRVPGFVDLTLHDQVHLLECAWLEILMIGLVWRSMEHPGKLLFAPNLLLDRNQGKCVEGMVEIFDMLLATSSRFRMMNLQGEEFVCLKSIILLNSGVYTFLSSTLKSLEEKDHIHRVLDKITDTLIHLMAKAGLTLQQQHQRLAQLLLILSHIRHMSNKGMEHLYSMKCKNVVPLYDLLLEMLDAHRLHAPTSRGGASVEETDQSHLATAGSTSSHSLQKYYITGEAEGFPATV
Assay: MCF-7 ERE-tk-luciferase test procedure, antagonist mode
Assay type: cell-based
Conditions: co-dosed with 10 pM 17β-estradiol, MCF-7 cells infected with adenovirus 5-ERE-tk-luciferase, treated 24 h
Text: Estrogen antagonist activity was shown for representative compounds of this invention in a standard pharmacological test procedure using MCF-7 cells transfected with an estrogen receptor. When administered orally, the compounds of this invention act at least partially as prodrugs for the corresponding hydroxylated compounds disclosed in EP 802183. Accordingly, the compounds of this invention are tissue selective estrogens, meaning that in certain tissue containing estrogen receptors, the compounds will act as estrogen agonists, and in other tissue containing estrogen receptors, the compounds will act as antagonists. […]
After treatment the cells were lysed on a shaker for 15 min with 25 uL/well of 1× cell culture lysis reagent (Promega Corporation). The cell lysates (20 uL) were transferred to a 96 well luminometer plate, and luciferase activity was measured in a MicroLumat LB 96 P luminometer (EG and G Bethold) using 100 uL/well of luciferase substrate (Promega Corporation). […] Following the injection of the substrate, luciferase activity was measured for 10 seconds after a 1 second delay. The data were transferred from the luminometer to a Macintosh personal computer and analyzed using the JMP software (SAS institute); this program subtracts the background reading from the luciferase measurement for each well and then determine the mean and standard deviation of each treatment. […]

Structure (SMILES) | pIC50
Cc1c(-c2ccc(O)cc2)n(Cc2ccc(OCCN3CCCCC3)cc2)c2ccc(O[C@@H]3O[C@H](C(=O)O)[C@@H](O)[C@H](O)[C@H]3O)cc12 [Compound 29, 1-[4-(2-Piperidin-1-yl-ethoxy)-benzyl]-2-(4-hydroxy-phenyl)-3-methyl-1H-indol-5-ol 5-O-glucuronide triethylammonium salt] | 6.64
Cc1c(-c2ccc(O[C@@H]3O[C@H](C(=O)O)[C@@H](O)[C@H](O)[C@H]3O)cc2)n(Cc2ccc(OCCN3CCCCC3)cc2)c2ccc(O)cc12 [Compound 37, 2-(4-Hydroxy-phenyl)-3-methyl-1-[4-(2-piperidin-1-yl-ethoxy)-benzyl]-1H-indol-5-ol 4-O-Glucuronide Triethyl Ammonium Salt] | 5.92
